From patent US6552001B1, “Method breeding and feeds” (Takara Shuzo Co., Ltd., priority 1998, dated 2003)

Legend:
Type in all cases: in vivo
[1] = single oral administration to a mouse, death; conditions: single dosage of 100 mg/kg
lymphocystis disease [2] = assay: soaking plus feed for bastard halibuts with lymphocystis disease cultured on land (Example 1); conditions: fishes without lymphocystis disease (preventive)
Method: Then, the water was replaced with seawater. A feed for diseased bastard halibuts was prepared by adding 7 kg of the heat treatment product of alginic acid to 134 kg of the moist feed as shown in Table 1 below. The feed was given to the soaked bastard halibuts twice a day such that the heat treatment product of alginic acid was given at 0.78 g/kg/day.

lymphocystis disease [3] = assay: feed for bastard halibuts with lymphocystis disease cultured in sea (Example 2); conditions: fishes without infection similarly treated
Method: A feed for young bastard halibuts (average body weight: 350 g) suffered from lymphocystis disease during culturing in sea was prepared by adding 3 kg of the heat treatment product of alginic acid as described in Referential Example 1-(1) to 136 kg of the moist feed as shown in Table 2 below. The feed was given to the fishes once in two days such that the heat treatment product of alginic acid was given at 1.2 g/kg/feeding.

gliding bacteria disease = assay: young bastard halibuts with gliding bacteria disease, soaking or feed (Example 3); conditions: fishes without infection similarly treated
Method: Young bastard halibuts with gliding bacteria disease (body weight: about 4 g) cultured on land were divided into four groups. Effect of the heat treatment product of alginic acid as described in Referential Example 1-(1) on gliding bacteria disease was examined.
Control group: 2400 young bastard halibuts were fed with commercially available dry pellets (Otohime No. 4: Nisshin Flour Milling) once a day. They were bred in a 25000-l seawater tank.
Soaked group: A water tank for soaking was prepared by adding 880 g of the heat treatment product of alginic acid to 400 l of seawater and starting oxygen supply. 2375 young bastard halibuts were distributed in baskets such that several hundreds of the fishes were contained in a basket. They were soaked in the water tank for soaking for 30 minutes. After soaking, they were bred in a 25000-l seawater tank being fed with commercially available dry pellets once a day.
Group administered with the heat treatment product of alginic acid (1): 2380 young bastard halibuts were bred in a 25000-l seawater tank being fed once a day with a feed prepared by adding 500 g of the heat treatment product of alginic acid to 78 kg of a moist feed as shown in Table 3 below. […]

white-mouth disease = assay: feed for tiger globefishes with white-mouth disease (Example 4); conditions: fishes without infection similarly treated
Method: A feed containing the heat treatment product of alginic acid to be given a day to 2000 tiger globefishes (average body weight: 450 g) suffered from white-mouth disease during culturing in sea was prepared upon use as follows. 1.11 kg of the heat treatment product of alginic acid as described in Referential Example 1-(1) was dissolved in water to a volume of 1.5 l. 10 kg of dry pellet feed (Otohime for globefish: Nisshin Flour Milling) was soaked with the solution. The entire feed was given to the fishes once a day such that 20 mg/kg body weight/day of cyclopentenone was given (group administered with the feed containing the heat treatment product of alginic acid).
As a control, 10 kg of the dry pellet feed (otohime for globefish: Nisshin Flour Milling) was given to 2000 tiger globefishes with white-mouth disease (average body weight: 450 g) once a day (control group)

## O=C1C=CC(O)C1O (centres unmarked) [cyclopentenone, 4,5-dihydroxy-2-cyclopenten-1-one]
[1]
  death: No death
Lymphocystis disease [2]
  occurrence of lymphocystis disease: no occurrence
Lymphocystis disease [3]
  occurrence of infection: no occurrence of infection
Gliding bacteria disease
  occurrence of infection: no occurrence of infection
white-mouth disease
  occurrence of infection: no occurrence of infection
